According to publication PMC8478281, “Targeting the FtsZ Allosteric Binding Site with a Novel Fluorescence Polarization Screen, Cytological and Structural Approaches for Antibacterial Discovery” (Journal of Medicinal Chemistry, 2021):
≈ marks a conversion by molar mass, not a printed value. Like-named read-outs stand apart in the source and are kept apart here.

Legend:
B. subtilis [1] = test: Minimal growth inhibitory concentration (broth macrodilution), B. subtilis; type: cell-based, Bacillus subtilis; conditions: Table S1, fluorescent probes
Procedure, shortened: (§1)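 Strains grown in cation-adjusted Mueller–Hinton broth at 37 °C (B. subtilis SU570 at 30 °C) to A600 0.1–0.2, then exposed to compounds or DMSO. MIC by broth macrodilution; division phenotype assessed by microscopy and cell measurement.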

[2] = biological target: T1, glutaraldehyde-stabilized FtsZ polymers (Bacillus subtilis, UniProt P17865); test: Stoichiometry of probe binding by polymer pelleting (centrifugation assay)
T1 construct: made in house
T1 sequence (P17865 whole entry): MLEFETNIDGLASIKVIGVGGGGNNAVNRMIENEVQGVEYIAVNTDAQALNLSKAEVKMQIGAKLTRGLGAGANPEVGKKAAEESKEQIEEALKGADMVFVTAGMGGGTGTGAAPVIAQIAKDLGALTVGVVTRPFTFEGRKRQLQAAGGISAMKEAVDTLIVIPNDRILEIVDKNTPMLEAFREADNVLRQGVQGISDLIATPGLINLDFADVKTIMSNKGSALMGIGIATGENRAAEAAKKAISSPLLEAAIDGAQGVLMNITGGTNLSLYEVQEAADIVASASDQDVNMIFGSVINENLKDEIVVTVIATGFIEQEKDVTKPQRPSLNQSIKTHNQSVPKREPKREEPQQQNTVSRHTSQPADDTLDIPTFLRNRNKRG
Experimental: The stoichiometry of binding of (R)-5 to stabilized FtsZ polymers was measured using a centrifugation assay adapted from ref ([49]). Then, FtsZ polymers (10 μM) were incubated at 25 °C in HEPES buffer, 10 mM MgCl2, 2% DMSO, and 0.1 mM GMPCPP at 25 °C in the presence of different probe concentrations, in a final volume of 0.1 mL. The samples were then centrifuged for 20 min at 100 000 rpm and 25 °C in a TLA-100 rotor. After centrifugation, the supernatant was carefully withdrawn and the pellets were resuspended in the same volume of buffer. The concentration of the free probe was determined spectrophotometrically in the supernatant, employing an extinction coefficient ε483 = 25 400 M^–1 cm^–1 for (R)-5 and the concentration of probe bound to FtsZ was calculated as the difference of the known total concentration of probe minus the free concentration. To calculate the FtsZ polymer concentration, 5 μL of the resuspended pellet was applied to sodium dodecyl sulfate (SDS)-12% polyacrylamide gels, stained with Coomassie blue, scanned with a CS-800 calibrated densitometer (BioRad), and the protein bands quantified using Quantity One software (BioRad).

S. aureus Mu50 = test: Minimal growth inhibitory concentration (broth macrodilution), S. aureus Mu50; type: cell-based, Staphylococcus aureus
Procedure, shortened: as §1

BsFtsZ = biological target: T2, BsFtsZ (Bacillus subtilis, UniProt P17865); test: Fluorescence anisotropy of probes after consecutive additions of FtsZ, GMPCPP, MgCl2 and PC190723; type: binding; conditions: for Fluorescence anisotropy (r): free probe: probe 10 μM in buffer; for Fluorescence anisotropy (r): + FtsZ (unassbld.) / Fluorescence anisotropy (r): + GMPCPP / Fluorescence anisotropy (r): + MgCl2 (polymer): probe 10 μM, FtsZ 10 μM; for Fluorescence anisotropy (r): + GMPCPP / Fluorescence anisotropy (r): + MgCl2 (polymer): GMPCPP 0.1 mM; for Fluorescence anisotropy (r): + MgCl2 (polymer): MgCl2 10 mM, 5–10 min
T2 construct: made in house
T2 sequence (P17865 whole entry): as above
Experimental: (A) Fluorescence anisotropy values of the free probes (10 μM) in buffer, to which FtsZ (10 μM, unassembled) was added, followed by the slowly hydrolyzable GTP analogue GMPCPP (0.1 mM). BsFtsZ polymerization was then induced by the addition of MgCl2 (10 mM) and anisotropy values were recorded 5–10 min later. Nonfluorescent PC190723 (10 μM) was subsequently added to displace the fluorescent probe and anisotropy was measured 5 min later. (B) Fluorescence microscopy images of B. subtilis cells treated for 1.5 h with the minimal division inhibitory concentrations (MDC) of (S)-2 and each enantiomer of 5 (Table S1), acquired employing the probe fluorescence.
(§2) FtsZ from B. subtilis (BsFtsZ) was prepared as described previously.[35] FtsZ was assembled in 50 mM N-(2-hydroxyethyl)piperazine-N′-ethanesulfonic acid (HEPES)-KOH, 50 mM KCl, 1 mM ethylenediaminetetraacetic acid (EDTA), pH 6.8 (HEPES buffer) plus 10 mM MgCl2, and 1 mM GTP or 0.1 mM GMPCPP at 25 °C. FtsZ assembly was monitored by light scattering.[34]

[3] = biological target: T3, FtsZ-GMPCPP polymers (BsFtsZ) (Bacillus subtilis, UniProt P17865); test: Binding titration of the fluorescent probes to FtsZ polymers by fluorescence anisotropy
T3 construct: made in house
T3 sequence (P17865 whole entry): as above
Experimental: as §2
The fluorescence spectra and anisotropy values of the different probes were acquired with a Fluoromax-4 (Horiba Jobin Yvon) photon-counting L-format spectrofluorometer using 2 mm × 10 mm cells at 25 °C, employing the maximum excitation and emission wavelength for each probe with 2 and 5 nm bandwidths, respectively. Anisotropy values were automatically measured as r = (Ivv – G Ivh)/(Ivv + 2G Ivh), where the subscripts refer to the vertical (v) or horizontal (h) positions of the excitation (first subscript) and emission (second subscript) polarizers, and G = Ihv/Ihh. Total intensity values were simultaneously determined as IT = Ivv +2G Ivh. Note that measurement correction procedures with T-format (double channel) fluorometers and with plate readers are slightly different.
FtsZ (10–15 μM) was assembled in HEPES buffer, 10 mM MgCl2, 50 μM GMPCPP at 25 °C for 10 min, and then 0.15% (v/v) glutaraldehyde[36] (distilled grade for microscopy, TAAB Laboratories, U.K.) was added to the solution that was incubated at 25 °C for 10 min more. (This was the minimal glutaraldehyde concentration determined to stabilize FtsZ polymers specifically binding probe 1.) The remains of the cross-linking agent were quenched by adding 60 mM NaBH4, the sample was incubated on ice for 10 min and degassed.[36] Cross-linked polymers were centrifuged for 10 min at 8200g (5000 rpm) and 4 °C in 15 mL Falcon tubes employing a Rotina 380R (Hettich) centrifuge, the supernatant was removed and the pellet was resuspended in the same volume of HEPES buffer, 10 mM MgCl2, containing 5 μM GMPCPP. Fixed FtsZ polymers were active in binding assays after more than 2 days at 4 °C; they could also be frozen in liquid nitrogen with a small loss of binding capacity. […] Cross-linked polymers of SaFtsZ were similarly prepared.
Binding affinity of the probes to FtsZ was measured by an increase in anisotropy of the probe (adapted from ref ([49])). Fixed concentrations of the probes (3 μM) were titrated with different FtsZ polymer concentrations (0–40 μM) in HEPES buffer with Mg^2+, to obtain the anisotropy increment, Δrmax, corresponding to the bound probe. The increase in anisotropy was plotted against the FtsZ polymer concentration (calculated by subtracting from the total protein concentration the critical concentration for polymerization under the same conditions) and iteratively least-squares fitted with an isotherm of binding to one site. The estimated values of Δrmax were used to approximate the free FtsZ concentrations, and these new values were employed again until an unchanging Δrmax value was obtained. The convergent data were used to calculate the binding constant of the fluorescent probe to FtsZ polymers (Table S1).

B. subtilis [4] = tested on: B. subtilis; parameters: method as in earlier work; conditions: Table S1; ref 1 (Artola et al., Chem. Sci. 2017); cited from earlier work
[5] = FtsZ-GMPCPP polymers, best fit values from binding titrations
[6] = binding to stabilized FtsZ polymers

For `CCC[C@H](COc1ccc(F)c(C(N)=O)c1F)Nc1ccc([N+](=O)[O-])c2nonc12` [(R)-5], the MIC B. subtilis (B. subtilis [1]) was 25 µM (≈ 10.5 µg/mL), the “stoichiometry of probe binding” value [2] was 0.6 molecules per FtsZ monomer and the “effect on growth of S. aureus Mu50, in words” value (S. aureus Mu50; 250 µM) was “partially inhibited growth”. For the same compound, the MIC S. aureus Mu50 (S. aureus Mu50; Table S1, fluorescent probes) was over 250 µM, the “Fluorescence anisotropy (r): + PC190723” value (BsFtsZ; data from Fig. 5A) was 0.052 and the “Fluorescence anisotropy (r): free probe” value (BsFtsZ) was 0.029. For the same compound, the “Fluorescence anisotropy (r): + FtsZ (unassbld.)” value (BsFtsZ) was 0.041, the “Fluorescence anisotropy (r): + GMPCPP” value (BsFtsZ) was 0.040 and the “Fluorescence anisotropy (r): + MgCl2 (polymer)” value (BsFtsZ) was 0.227. For the same compound, the Imax/Imin [3, 5] was 6.2, the “rmax (all probe bound)” value [3, 5] was 0.272 and the “rmin (free probe)” value [3, 5] was 0.029. For the same compound, the Kd [3, 5] was 1.9 ± 0.6 µM, the Kd [3, 6] was 2 ± 0.5 µM and the Imax/Imin [3, 6] was 5.0. The “rmax (all probe bound)” value [3, 6] was 0.268 and the “rmin (free probe)” value [3, 6] was 0.029.
In the case of `NC(=O)c1c(F)ccc(OCCNc2ccc([N+](=O)[O-])c3nonc23)c1F` [Compound 1, reference compound], the MIC B. subtilis (B. subtilis [4]) is listed as 800 µM (≈ 303 µg/mL), the “Fluorescence anisotropy (r): + PC190723” value (BsFtsZ; PC190723 10 μM added to the polymer, 5 min) is listed as 0.029 and the “Fluorescence anisotropy (r): free probe” value (BsFtsZ) is listed as 0.022. The “Fluorescence anisotropy (r): + FtsZ (unassbld.)” value (BsFtsZ) was 0.027, the “Fluorescence anisotropy (r): + GMPCPP” value (BsFtsZ) was 0.026 and the “Fluorescence anisotropy (r): + MgCl2 (polymer)” value (BsFtsZ) was 0.080. For the same compound, the Imax/Imin [3, 5] was 1.0, the “rmax (all probe bound)” value [3, 5] was 0.213 and the “rmin (free probe)” value [3, 5] was 0.024. For the same compound, the Kd [3, 5] was 26 ± 3 µM, the Kd [3, 6] was 17 ± 1 µM and the Imax/Imin [3, 6] was 1.0. For the same compound, the “rmax (all probe bound)” value [3, 6] was 0.26 and the “rmin (free probe)” value [3, 6] was 0.024.
